What was measured:
[1] = design: method as in PMID 32815366; settings: cell line not given; cited from earlier work
[2] = Cell viability assay, HK2 normal renal cells; settings: human
Description: On the basis of the IDO1 and HDAC activities, we explored the proliferation inhibitory activities of the selected compounds against four solid tumor cells lines.

HCT-116 cells = experiment: Cell viability (MTT) assay, HCT-116; settings: Homo sapiens, HCT-116, 48 h, read-out: Antiproliferative IC50, HCT-116
Description: Section S 1.3 Cell viability assays
(§1) Cell Bank at the Chinese Academy of Sciences.
(§2) DMEM and FBS were obtained from Gibco-Thermo (BRL Co. Ltd., USA).
(§3) another 48 h. The cells were stained with 10 μl of MTT at incubator for approximately 4 h. The medium was discarded and replaced by 100 mL DMSO. The O.D. value was read at 570/630 nm with a spectrophotometer.

MDA-MB-231 cells = experiment: Cell viability (MTT) assay, MDA-MB-231; settings: Homo sapiens, MDA-MB-231, 48 h, read-out: Antiproliferative IC50, MDA-MB-231
Description: Section S 1.3 Cell viability assays
as §1, §2, §3

rhIDO1 = biological target: T1, rhIDO1 (Homo sapiens, UniProt P14902); experiment: IDO1 inhibition assay; type: biochemical; settings: means ± S.D. of three independent experiments
T1 construct: purchased
Description: Section S1. Biological assays […]
Section S 1.2 IDO1 inhibition assays
IDO1 inhibition assays were carried out according to the manufacturers’ procedures, as described previously. The standard assay mixture (100 μL) contained 50 mM of potassium phosphate buffer (pH = 6.5), 10 mM ascorbate, 10 μM methylene blue, 100 μg/mL catalase, 1 mM L-tryptophan and 10 μg/mL of rhIDO1. The plate was incubated at 37 °C in a dark environment, and reactions were terminated after 60 min by the addition of 50 μL of fluorogenic developer solution and further incubated at 45 °C in dark for 3 h. Then, the plate was allowed to cool to room temperature for at least 1 h. After centrifugation at 1500g for 5 min at 20 °C, the fluorescence […]
M1000 Pro, Tecan US, Morrisville, NC) in an end-point mode. […]

MCF-7 cells = experiment: Cell viability (MTT) assay, MCF-7; settings: Homo sapiens, MCF7, 48 h, read-out: Antiproliferative IC50, MCF-7
Description: Section S 1.3 Cell viability assays
as §1, §2, §3

SW480 cells = experiment: Cell viability (MTT) assay, SW480; settings: Homo sapiens, SW480, 48 h, read-out: Antiproliferative IC50, SW480
Description: Section S 1.3 Cell viability assays
as §1, §2, §3

[3] = biological target: T2, HDAC6 human recombinant enzyme (Homo sapiens, UniProt Q9UBN7); experiment: HDAC6 enzyme inhibitory activity assay; type: biochemical; settings: for inhibition at 1 µM: read-out: HDAC6 Inhibition Rate at 1 μM
T2 sequence (Q9UBN7 1-1215): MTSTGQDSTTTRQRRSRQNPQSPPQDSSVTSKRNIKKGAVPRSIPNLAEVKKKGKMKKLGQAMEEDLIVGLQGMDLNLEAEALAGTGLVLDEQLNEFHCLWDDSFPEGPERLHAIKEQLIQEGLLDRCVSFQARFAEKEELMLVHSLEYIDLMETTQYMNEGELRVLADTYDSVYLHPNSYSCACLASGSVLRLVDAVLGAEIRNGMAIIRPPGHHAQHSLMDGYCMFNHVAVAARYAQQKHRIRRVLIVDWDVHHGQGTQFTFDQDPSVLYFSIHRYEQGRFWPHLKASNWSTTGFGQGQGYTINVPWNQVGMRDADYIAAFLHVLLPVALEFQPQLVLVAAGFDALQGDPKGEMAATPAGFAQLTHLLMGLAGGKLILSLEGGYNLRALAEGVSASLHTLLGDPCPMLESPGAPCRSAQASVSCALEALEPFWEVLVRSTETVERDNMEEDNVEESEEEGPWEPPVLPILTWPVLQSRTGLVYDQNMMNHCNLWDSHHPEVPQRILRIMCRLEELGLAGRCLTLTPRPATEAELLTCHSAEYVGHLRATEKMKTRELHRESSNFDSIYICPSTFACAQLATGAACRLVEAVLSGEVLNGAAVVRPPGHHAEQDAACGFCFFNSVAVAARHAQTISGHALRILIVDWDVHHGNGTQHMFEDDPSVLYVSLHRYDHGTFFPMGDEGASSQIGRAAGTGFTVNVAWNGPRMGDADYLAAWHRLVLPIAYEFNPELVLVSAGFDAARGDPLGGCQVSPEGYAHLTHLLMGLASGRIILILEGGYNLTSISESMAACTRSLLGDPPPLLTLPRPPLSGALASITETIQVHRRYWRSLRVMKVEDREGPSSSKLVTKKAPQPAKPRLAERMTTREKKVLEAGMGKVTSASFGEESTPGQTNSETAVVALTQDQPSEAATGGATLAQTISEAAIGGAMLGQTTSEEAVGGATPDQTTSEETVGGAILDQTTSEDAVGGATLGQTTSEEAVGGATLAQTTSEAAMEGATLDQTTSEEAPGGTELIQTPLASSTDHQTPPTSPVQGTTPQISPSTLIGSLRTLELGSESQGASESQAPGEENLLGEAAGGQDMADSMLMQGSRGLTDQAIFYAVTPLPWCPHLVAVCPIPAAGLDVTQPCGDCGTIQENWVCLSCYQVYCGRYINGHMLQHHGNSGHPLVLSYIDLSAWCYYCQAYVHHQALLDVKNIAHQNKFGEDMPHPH
Description: Section S1. Biological assays
Section S 1.1. HDAC6 enzyme inhibitory activity assay
Preparation of Master Mix. Trichostatin A in DMSO, Fluorogenic HDAC substrate 3, and HDAC6 human recombinant enzyme were diluted to 20 μM, 200 μM, and 7 ng/uL, respectively, using HDAC Assay Buffer.BSA was dissolved in 1 mL of distilled water to make a BSA solution at a concentration of 1 mg/mL. A certain amount of Fluorogenic HDAC substrate 3, BSA and HDAC Assay Buffer were mixed well to make a master mix, and 40 μL of the master mix was added to each well of a 96-well plate. In the drug administration group, 5 μL of Trichostatin A in DMSO and HDAC6 human recombinant enzyme were added to each well. 5 μL of HDAC Assay Buffer and HDAC6 human recombinant enzyme were added to each well of the blank group, and incubated for 30 min at 37 °C. Finally, 50 μL of undiluted HDAC substrate 3, BSA and HDAC Assay Buffer were added to each well. 50 μL of 2x HDAC Developer was added to each well and incubated at room temperature for 15 min. The samples were read in an enzyme marker with an excitation wavelength in the range of 350-380 nm and an emission light in the range of 440-460 nm.
The values of fluorescence intensities were read and the inhibition rate and IC50 were calculated. […]

HDAC4 = HDAC4 (Homo sapiens, UniProt P56524); experiment: HDAC isoform selectivity assay, HDAC4; type: biochemical; settings: read-out: HDAC4 % inhibition rate at 10 μM
HDAC1 = HDAC1 (Homo sapiens, UniProt Q13547); experiment: HDAC isoform selectivity assay, HDAC1; type: biochemical
HDAC11 = biological target: T3, HDAC11 (Homo sapiens, UniProt Q96DB2); experiment: HDAC isoform selectivity assay, HDAC11; type: biochemical
T3 sequence (Q96DB2 1-347): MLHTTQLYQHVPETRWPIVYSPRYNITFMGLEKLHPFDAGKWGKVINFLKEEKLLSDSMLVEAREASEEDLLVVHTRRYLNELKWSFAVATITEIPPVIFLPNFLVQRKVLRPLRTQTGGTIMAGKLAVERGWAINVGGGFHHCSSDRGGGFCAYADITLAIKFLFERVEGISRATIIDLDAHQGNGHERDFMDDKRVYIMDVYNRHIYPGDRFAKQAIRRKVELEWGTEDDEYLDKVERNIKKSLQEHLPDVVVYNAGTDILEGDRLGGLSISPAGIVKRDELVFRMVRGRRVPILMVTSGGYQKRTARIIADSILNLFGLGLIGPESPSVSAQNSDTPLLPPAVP

T1 sequence (P14902 whole entry): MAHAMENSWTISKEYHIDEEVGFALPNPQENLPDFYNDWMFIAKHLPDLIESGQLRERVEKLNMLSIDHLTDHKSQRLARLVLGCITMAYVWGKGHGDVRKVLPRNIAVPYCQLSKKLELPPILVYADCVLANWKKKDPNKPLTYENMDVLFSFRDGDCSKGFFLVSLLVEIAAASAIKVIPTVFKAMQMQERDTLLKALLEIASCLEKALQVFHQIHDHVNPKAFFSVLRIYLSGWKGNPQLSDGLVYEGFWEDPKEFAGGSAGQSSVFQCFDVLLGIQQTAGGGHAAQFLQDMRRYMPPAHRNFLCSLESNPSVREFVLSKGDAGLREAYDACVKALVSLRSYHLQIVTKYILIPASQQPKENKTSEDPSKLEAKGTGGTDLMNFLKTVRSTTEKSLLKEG
Sequence of HDAC1 (Q13547 whole entry, species assumed, canonical isoform): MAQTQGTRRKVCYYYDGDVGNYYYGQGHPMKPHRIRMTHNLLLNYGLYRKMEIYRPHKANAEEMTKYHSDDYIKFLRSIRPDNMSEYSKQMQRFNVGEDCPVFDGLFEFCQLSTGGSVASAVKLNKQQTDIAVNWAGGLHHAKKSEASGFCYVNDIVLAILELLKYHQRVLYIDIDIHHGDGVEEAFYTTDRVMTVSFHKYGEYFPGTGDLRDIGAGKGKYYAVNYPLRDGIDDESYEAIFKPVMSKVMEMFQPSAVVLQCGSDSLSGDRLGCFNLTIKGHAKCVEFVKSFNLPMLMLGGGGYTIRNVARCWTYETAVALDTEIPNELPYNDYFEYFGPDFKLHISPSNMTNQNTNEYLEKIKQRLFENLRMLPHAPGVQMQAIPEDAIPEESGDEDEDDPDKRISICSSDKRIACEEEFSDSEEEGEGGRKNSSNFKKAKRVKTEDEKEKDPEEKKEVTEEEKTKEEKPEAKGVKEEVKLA
Sequence of HDAC4 (P56524 whole entry, species assumed, canonical isoform): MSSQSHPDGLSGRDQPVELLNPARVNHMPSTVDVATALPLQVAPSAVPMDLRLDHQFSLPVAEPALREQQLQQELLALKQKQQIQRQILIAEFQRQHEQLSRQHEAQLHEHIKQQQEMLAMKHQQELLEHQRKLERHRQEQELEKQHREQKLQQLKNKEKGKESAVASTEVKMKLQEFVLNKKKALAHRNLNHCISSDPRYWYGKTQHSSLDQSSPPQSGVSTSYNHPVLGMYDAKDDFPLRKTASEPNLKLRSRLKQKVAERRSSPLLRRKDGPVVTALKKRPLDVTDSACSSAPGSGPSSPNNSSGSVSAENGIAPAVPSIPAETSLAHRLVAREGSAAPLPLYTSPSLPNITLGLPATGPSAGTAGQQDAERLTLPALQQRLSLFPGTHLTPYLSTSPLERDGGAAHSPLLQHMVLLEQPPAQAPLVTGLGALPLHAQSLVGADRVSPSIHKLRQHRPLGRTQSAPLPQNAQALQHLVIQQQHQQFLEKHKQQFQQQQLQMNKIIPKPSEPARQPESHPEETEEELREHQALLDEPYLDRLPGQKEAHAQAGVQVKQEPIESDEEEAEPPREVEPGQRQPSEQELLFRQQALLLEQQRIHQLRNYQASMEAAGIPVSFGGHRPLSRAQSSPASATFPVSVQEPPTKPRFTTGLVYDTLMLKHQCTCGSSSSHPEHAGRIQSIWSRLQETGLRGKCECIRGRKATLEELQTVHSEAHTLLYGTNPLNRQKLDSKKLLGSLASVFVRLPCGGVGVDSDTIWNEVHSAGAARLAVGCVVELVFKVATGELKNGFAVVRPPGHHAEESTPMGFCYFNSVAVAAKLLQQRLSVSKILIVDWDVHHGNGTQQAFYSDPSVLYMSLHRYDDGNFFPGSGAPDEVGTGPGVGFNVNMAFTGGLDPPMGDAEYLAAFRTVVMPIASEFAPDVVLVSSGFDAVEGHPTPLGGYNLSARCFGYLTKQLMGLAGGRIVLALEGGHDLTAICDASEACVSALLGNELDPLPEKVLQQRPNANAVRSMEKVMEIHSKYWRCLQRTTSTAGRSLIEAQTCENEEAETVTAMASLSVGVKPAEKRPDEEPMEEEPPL

Structure (SMILES) | IC50 (HCT-116 cells) | IC50 (MDA-MB-231 cells) | IC50 (rhIDO1) | IC50 (MCF-7 cells) | IC50 (SW480 cells) | IC50 [3] | Selectivity Index (SI) = HDAC1 IC50 value/HDAC6 IC50 value [3] | inhibition at 1 µM [3] | inhibition at 10 µM (HDAC4) | IC50 (HDAC1) | inhibition at 10 µM (HDAC11; read-out: HDAC11 % inhibition rate at 10 μM) | IC50 (HDAC11) | concentration at which cytotoxicity begins [1] | IC50 [2]
CCCCN(Cc1ccc(C(=O)NO)cc1)C(=O)Nc1ccccc1 [NextA] |  |  |  |  |  |  |  |  |  |  |  |  | 10 µM | 
NCc1ccc(NC(=O)N(CCCCO)Cc2ccc(C(=O)NO)cc2)cc1 [Suprastat] |  |  |  |  |  |  |  |  |  |  |  |  | > 25 µM | 
O=C(O)c1cnc2scc(-c3ccc(Br)cc3)n12 [5a] | > 80 µM | > 80 µM | 6.52 ± 0.45 µM | > 80 µM | > 80 µM |  |  |  |  |  |  |  |  | > 80 µM

Further lines, with some results ahead:

IC50 (HCT-116 cells) | IC50 (MDA-MB-231 cells) | IC50 (rhIDO1) | IC50 (MCF-7 cells) | IC50 (SW480 cells) | IC50 [3] | Selectivity Index (SI) = HDAC1 IC50 value/HDAC6 IC50 value [3] | inhibition at 1 µM [3] | inhibition at 10 µM (HDAC4) | IC50 (HDAC1) | inhibition at 10 µM (HDAC11; read-out: HDAC11 % inhibition rate at 10 μM) | IC50 (HDAC11) | Structure (SMILES) | concentration at which cytotoxicity begins [1] | IC50 [2]
> 80 µM | > 80 µM | 0.16 ± 0.03 µM | > 80 µM | > 80 µM | 0.391 µM | 3.04 | 70.7% | 9.68% | 1.19 µM | 29.8% |  | Cc1ccc(-c2csc3ncc(C(=O)Nc4ccc(NCCCCCCC(=O)NO)cc4)n23)cc1 [Compound 10k, N-{4-[(7-(hydroxyamino)-7-oxoheptyl)amino]phenyl}-3-(p-tolyl)imidazo[2,1-b]thiazole-5-carboxamide] |  | 
> 80 µM | > 80 µM | 0.53 ± 0.11 µM | > 80 µM | > 80 µM | 0.0844 µM | 29.00 | 85.6% | 31.5% | 2.45 µM |  | 6.06 µM | O=C(NO)c1ccc(CNC(=O)c2cnc3scc(-c4ccc(Br)cc4)n23)cc1 [Compound 7a, 3-(4-Bromophenyl)-N-[4-(hydroxycarbamoyl)benzyl]imidazo[2,1-b]thiazole-5-carboxamide] |  | 

Reference: PMC12195740, “Discovery of Novel Imidazothiazole-Based Hydroxamic Acid Derivatives as Potent Indoleamine 2,3-Dioxygenase 1 and Histone Deacetylase 6 Dual Inhibitors” (Molecules, 2025)
